Laboratory results reported in patent publication US20230000842A1, “METHODS OF TREATING CARTILAGE DISORDERS THROUGH INHIBITION OF CLK AND DYRK” (SAMUMED, LLC, priority 2019, published 2023).

Tests used:
[1] = system: Wnt pathway activity (SW480 colon carcinoma cells stably expressing the Sp5-Luc reporter); assay: Wnt pathway activity screening assay (Sp5-Luc reporter gene assay); conditions: Homo sapiens, SW480, Table 4; SW480 cells stably expressing Sp5-Luc reporter, 10-point dose-response from 10 μM, 36 to 48 hours
[2] = system: MMP-3 levels in supernatant of chondrocytes stimulated with IL1-β; assay: Chondrocyte protection assay compound screening (MMP-3 LANCE Ultra); type: cell-based, human; conditions: Homo sapiens, Chondrocyte, IL1-β 10 ng/mL overnight, 11-point curves from 3 μM to 0.05 nM; for Emax: read-out: Maximum % Inhibition
Protocol: Human Chondrocyte Cell Culture: Primary human chondrocytes were purchased from Lonza (Walkersville, Md.) and expanded in Chondrocyte Growth Media (CGM, Lonza). Cells between passage 2 and 5 were used for the experiments.
Chondrocytes were plated at 8,000 cells/well in 40 μL/well Chondrocyte Differentiation Medium (Lonza; 500 mL Basal Medium, 25 mL FBS, 0.5 mL GA-1000, 1 mL R3-IGF, 2.5 mL bFGF, 0.5 mL Transferrin, and 1 mL Insulin). After 2 hours of incubation at 37° C. and 5% CO2, IL1-β (Peprotech, Rocky Hill, N.J.) was added to a final concentration of 10 ng/mL. 11 wells in 1 row were left unstimulated for normalization and calculating EC50 values. Cells were incubated at 37° C. and 5% CO2 overnight. Assay plates are spun, 25 μl of supernatant media was collected using (S2 pipettor, Apricot Designs). Cells were lysed using 10 μL of (Cell Titer-Glo, Promega). Luminescent signal detected using an En Vision Multilabel reader (Perkin Elmer). MMP-3 levels were measured in supernatant. Supernatant diluted 1:7 in DMEM. MMP-3 levels in the supernatant were measured using MMP-3 LANCE Ultra detection kit (Perkin Elmer). Briefly, 5 μL of diluted supernatant was transferred to low-volume 384 well plates using (S2 pipettor, Apricot Designs). A standard curve was prepared using MMP-3 analyte (range […]). 1.7 μL of 8× mix of Eu-labelled anti-MMP-3 antibody and ULight labelled anti-MMP-3 antibody was added to the plates using Mantis Liquid handler (Formulatrix). Plates were incubated overnight at room temperature. LANCE signal was detected using an EnVision Multilabel reader (Perkin Elmer), equipped with TR-FRET using excitation wavelength of 320 nm and two emission wavelengths of 615 nm and 665 nm. Data was analyzed according to the kit protocol, using the ratio of […] and the standard curve values were used to calculate the amount of MMP3 in the […] (in pg/ml). The normalized averages (fold change over IL1-β stimulated) for each compound concentration were calculated. EC50 and maximum % inhibition values were calculated using the dose-response nonlinear regression curve-fit in Dotmatics.

[3] = biological target: CLK2 kinase (Homo sapiens, UniProt P49760); assay: CLK2 kinase activity assay (Z-lyte FRET); type: biochemical; conditions: Z-lyte Ser/Thr 6 peptide, 60 μM ATP, 1 h at room temperature;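 also: FRET read-out as coumarin to fluorescein emission ratio, unphosphorylated peptide as 0% and phosphorylated peptide as 100% controls, duplicate reactions, non-linear regression fit of dose-response curves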
Chain of CLK2 kinase (P49760 whole entry): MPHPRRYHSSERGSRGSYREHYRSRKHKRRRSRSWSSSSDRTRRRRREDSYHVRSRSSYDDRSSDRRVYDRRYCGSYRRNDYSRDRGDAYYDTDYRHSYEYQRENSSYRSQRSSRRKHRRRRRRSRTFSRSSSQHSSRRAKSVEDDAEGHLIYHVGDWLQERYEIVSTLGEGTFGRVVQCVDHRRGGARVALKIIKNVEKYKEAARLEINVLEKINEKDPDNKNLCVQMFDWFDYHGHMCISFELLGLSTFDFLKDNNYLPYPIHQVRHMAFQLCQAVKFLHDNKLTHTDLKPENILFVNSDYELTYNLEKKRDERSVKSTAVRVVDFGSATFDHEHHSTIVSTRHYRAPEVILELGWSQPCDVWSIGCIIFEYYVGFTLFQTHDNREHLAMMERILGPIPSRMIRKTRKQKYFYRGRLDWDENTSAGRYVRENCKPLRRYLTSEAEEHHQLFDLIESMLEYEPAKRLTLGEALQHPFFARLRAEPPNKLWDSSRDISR

[4] = biological target: CLK3 kinase (Homo sapiens, UniProt P49761); assay: CLK3 kinase activity assay (Z-lyte FRET); type: biochemical; conditions: Z-lyte Ser/Thr 18 peptide, 156 μM ATP, 1 h at room temperature;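 also: kinase activity read as coumarin/fluorescein emission ratio by FRET, unphosphorylated peptide as 0% and phosphorylated peptide as 100% control, values from non-linear regression of dose-response curves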
Chain of CLK3 kinase (P49761 whole entry): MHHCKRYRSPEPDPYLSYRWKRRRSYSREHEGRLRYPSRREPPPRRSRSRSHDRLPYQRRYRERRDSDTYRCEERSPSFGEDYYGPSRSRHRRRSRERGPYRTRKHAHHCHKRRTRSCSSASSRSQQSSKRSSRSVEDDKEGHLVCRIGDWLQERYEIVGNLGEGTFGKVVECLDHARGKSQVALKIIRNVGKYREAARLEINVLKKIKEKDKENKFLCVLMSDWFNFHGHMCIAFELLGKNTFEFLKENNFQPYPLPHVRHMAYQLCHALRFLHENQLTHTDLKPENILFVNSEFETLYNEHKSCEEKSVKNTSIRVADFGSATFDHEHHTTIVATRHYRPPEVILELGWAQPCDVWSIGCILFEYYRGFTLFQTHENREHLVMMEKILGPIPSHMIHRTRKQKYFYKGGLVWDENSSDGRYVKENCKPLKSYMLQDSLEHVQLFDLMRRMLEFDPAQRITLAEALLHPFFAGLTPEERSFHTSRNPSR

[5] = system: primary human mesenchymal stem cells (hMSCs); assay: Chondrogenesis screening using primary human mesenchymal stem cells; type: cell-based; conditions: Homo sapiens, Mesenchymal stem cells, hMSC chondrogenesis; maximum activity relative to TGF-β3 (10 ng/mL) positive control; read-out: Max. Activity as % TGF-β3 activity
Outline: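 Derived values are EC50 for 50% chondrogenesis, maximal activity and the dose giving it. These come from nodule area in passage 3–6 primary hMSCs, expressed as fold change over the mean of 3 same-plate DMSO wells, 2–3 replicates per concentration. TGF-β3 served as positive control.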

Row | SMILES | EC50 [1] [nM] | EC50 [2] [nM] | Emax [2] [%] | EC50 [3] [nM] | EC50 [4] [nM] | Emax [5] [%]
1 | O=C(Nc1c[nH]nc1C(=O)Nc1cccnc1)c1cccnc1 [compound 1] | 20.5 | 38.9 | 100 | 23 | 5300 | 
2 | O=C(Nc1c[nH]nc1C(=O)Nc1ccc(OCCN2CCCC2)cc1)c1cccnc1 [compound 3] | 119 | 811 | 23.7 | 24 | 3700 | 
3 | COc1cncc(C(=O)Nc2c[nH]nc2C(=O)Nc2ccc(CN(C)C)cc2)c1 [compound 4] | 123 | ≥ 3000 | 99.9 | 57 | 6610 | 
4 | COc1cncc(C(=O)Nc2c[nH]nc2C(=O)Nc2ccc3c(c2)CCNC3)c1 [compound 8] | 613 | 342 | 76 | 27 | 6160 | 
5 | COc1cncc(C(=O)Nc2c[nH]nc2C(=O)Nc2ccc3c(c2)CCN(C)C3)c1 [compound 9] | 558 | ≥ 3000 | 65.6 | 45 | 6090 | 
6 | O=C(Nc1c[nH]nc1C(=O)Nc1ccc(N2CCCC2)nc1)c1cncc(OC2CCNCC2)c1 [compound 11] | 2.5 | ≥ 3000 | 80 | 9 | 5150 | 
7 | O=C(Nc1c[nH]nc1C(=O)Nc1ccc(N2CCCCC2)nc1)c1cncc(OC2CCNCC2)c1 [compound 13] | 662 | ≥ 3000 | 71 | 14 | 3500 | 
8 | O=C(Nc1c[nH]nc1-c1nc2c(-c3cccc(F)c3)cccc2[nH]1)c1cccnc1 [compound 15] | 2.9 | 76.5 | 100 | 2 | 485 | 
9 | Cc1n[nH]c2ccc(-c3cncc(OCCN)c3)cc12 [compound 34] | 1640 | ≥ 3000 | 12.9 |  | 5250 | 
10 | c1cncc(-c2ccc3[nH]nc(-c4cc5c(-c6cccnc6)cncc5[nH]4)c3c2)c1 [compound 341] | 310 | 1.1 | 58.2 |  | 3 | 58.2
11 | CN1CCC(Oc2ccc(C(=O)Nc3cc4cc(-c5cnn(C)c5)ccc4cn3)cc2)CC1 [compound 541] |  | ≥ 3000 | 95.6 | 1 | 14 | 25.4
12 | CN1CCN(c2cc(C(=O)Nc3cc4c(Cl)c(-c5cnn(C)c5)ccc4cn3)ccn2)CC1 [compound 547] |  | 898 | 52.1 | 3 | 43 | 
13 | Cc1cc(C(=O)Nc2cc3cc(-c4cnn(C)c4)ccc3cn2)cc(N2CCN(C)CC2)n1 [compound 548] |  | ≥ 3000 | 62.4 | 2 | 26 | 
14 | Cn1cc(-c2ccc3cnc(NC(=O)c4ccnc(N5CC6CC5CN6)c4)cc3c2)cn1 (stereo not shown) [compound 549] |  | ≥ 3000 | 69 | 3 | 26 | 
15 | CN1CCN(c2ccc(C(=O)N3CCN(c4cc(C(=O)Nc5cc6cc(-c7cnn(C)c7)ccc6cn5)ccn4)CC3)cn2)CC1 [compound 553] |  | 304 | 52.3 | 2 | 280 | 
16 | CN1CCC2(CC1)CN(c1cc(C(=O)Nc3cc4cc(-c5cnn(C)c5)ccc4cn3)ccn1)C2 [compound 554] |  | ≥ 3000 | 53.7 | 1 | 16 | 
17 | Cn1cc(-c2ccc3cnc(NC(=O)c4ccnc(OC5CNC5)c4)cc3c2)cn1 [compound 556] |  | 154 | 100 | 2 | 38 | 
18 | Cn1cc(-c2ccc3cnc(NC(=O)c4ccc5c(c4)CNCC5)cc3c2)cn1 [compound 557] |  | 1630 | 50.5 | 2 | 39 | 

Row | SMILES | EC50 [1] [nM] | EC50 [2] [nM] | Emax [2] [%] | EC50 [3] [nM] | EC50 [4] [nM] | Emax [5] [%]
19 | Cn1cc(-c2ccc3cnc(NC(=O)c4ccc5c(c4)ncn5C)cc3c2)cn1 [compound 558] |  | ≥ 3000 | 46.9 | 3 | 49 | 
20 | Cn1cc(-c2ccc3cnc(NC(=O)C4=CNC5C=CC=CC5=C4)cc3c2)cn1 (stereo not shown) [compound 559] |  | 19.1 | 41.2 | 4 | 66 | 
21 | Cn1cc(-c2ccc3cnc(NC(=O)c4ccc5cnccc5c4)cc3c2)cn1 [compound 560] |  | ≥ 3000 | 63.6 | 4 | 85 | 
22 | CN1CCN(c2cc(C(=O)Nc3cc4cc(-c5cnn(C6CC6)c5)ccc4cn3)ccn2)CC1 [compound 565] |  | 12.2 | 76.6 | 6 | 71 | 
23 | Cn1ncc(-c2ccc3cnc(NC(=O)c4ccc(OC(F)F)cc4)cc3c2)c1CO [compound 567] |  | 1370 | 69.8 | 8 | 261 | 
24 | CN1CCC2(CC1)CN(c1cc(C(=O)Nc3cc4cc(-c5cnn(C)c5CO)ccc4cn3)ccn1)C2 [compound 568] |  | ≥ 3000 | 42.7 | 3 | 44 | 
25 | Cn1ncc(-c2ccc3cnc(NC(=O)c4cccc(CN5CCCC5)c4)cc3c2)c1CN1CCCCC1 [compound 572] |  | 1190 | 96.5 | 2 | 15 | 27.6
26 | Cn1ncc(-c2ccc3cnc(NC(=O)c4ccnc(N5CCOCC5)c4)cc3c2)c1CN1CCOCC1 [compound 573] |  | ≥ 3000 | 70 | 2 | 8 | 
27 | CC(C)N1CCC(Oc2cc(C(=O)Nc3cc4cc(-c5cnn6c5CCNC6)ccc4cn3)ccn2)CC1 [compound 575] |  | 75.8 | 41.5 | 2 | 26 | 18.6
28 | CN1CCN(c2ccc(C(=O)Nc3cc4cc(-c5cnn6c5CN(CCF)CC6)ccc4cn3)cn2)CC1 [compound 576] |  | ≥ 3000 | 62.6 | 2 | 81 | 
29 | Cn1cncc1-c1ccc2cnc(NC(=O)c3ccc(F)cc3)cc2c1 [compound 580] |  | ≥ 3000 | 59.4 | 1 | 33 | 24.9
30 | Cn1cncc1-c1ccc2cnc(NC(=O)c3ccnc(N4CCN(C5CC5)CC4)c3)cc2c1 [compound 582] |  | ≥ 3000 | 52.2 | 2 | 18 | 
31 | CN1Cc2ccc(C(=O)Nc3cc4cc(-c5cncn5C)ccc4cn3)cc2C1 [compound 583] |  | ≥ 3000 | 67.5 | 2 | 27 | 
32 | Cc1ncc(-c2ccc3cnc(NC(=O)c4ccc(OC(C)C)cc4)cc3c2)n1C [compound 588] |  | 10.5 | 74.7 | 2 | 70 | 
33 | NC1CN(c2cc(C(=O)Nc3cc4cc(-c5cnco5)ccc4cn3)ccn2)C1 [compound 590] |  | ≥ 3000 | 33.2 | 4 | 40 | 
34 | O=C(Nc1cc2cc(-c3cncs3)ccc2cn1)c1ccc2c(c1)CNCC2 [compound 592] |  | ≥ 3000 | 29.7 | 2 | 43 | 
35 | CN1CCN(c2cc(C(=O)Nc3cc4cc(-c5cnc(N)s5)ccc4cn3)ccn2)CC1 [compound 593] |  | 0.4 | 62.9 | 3 | 22 | 
36 | Cc1nnc(-c2ccc3cnc(NC(=O)c4ccnc(C5CCN(C)CC5)c4)cc3c2)s1 [compound 594] |  | 143 | 35.3 | 2 | 14 | 
